Legend:
[1] = system: human adult articular chondrocytes; assay: RNA-Seq of human adult articular chondrocytes; format: cell-based; conditions: n=7
human fetal chondrocytes = assay: Chondrocyte terminal differentiation (COLX expression, alkaline phosphatase) in human fetal chondrocytes; format: cell-based
Text: From a therapeutic and regulatory standpoint, small molecules represent a highly attractive modality for manipulating cell biology. To this end, we conducted a high throughput screen to discover small molecules that regulate chondrocyte differentiation. As a readout for the screen, we chose mice carrying a transgenic mCherry reporter (Maye et al., 2011) for expression of Col10a1 (COL10). COL10 expression, along with alkaline phosphatase (AP) levels, increases during later stages of chondrocyte differentiation, concomitant with withdrawal from the cell cycle. […] To conduct the screen, total limb cells were isolated from Col10a1-mCherry transgenic embryos and cultured in the presence of BMP-4, a driver of chondrocyte hypertrophy (Wu et al., 2013); 170,000 compounds were assayed for their ability to decrease the mCherry signal in live cells under these conditions (FIG. 27A). Out of this first dataset, 469 molecules were selected for confirmatory screening. This number was further reduced to 75 verified compounds that blocked increases in mCherry signal (FIG. 27B). Additional vetting led to the selection of Regulator of Cartilage Growth and Differentiation (RCGD) 423 as the primary compound for continued characterization. The ability of RCGD 423 to inhibit COL10 expression in human cells was confirmed, and AP activity was employed as a supplemental readout of chondrocyte differentiation.
Cells were fixed with 3.7% formaldehyde and stained for alkaline phosphatase activity with SigmaFast 5-bromo-4-chloro-3-indolyl phosphate/4-nitro blue tetrazolium (BCIP/NBT) (Sigma Aldrich, St. Louis, Mo.) according to the manufacturer's protocol.

chondrocyte cultures = assay: Toxicity in chondrocyte cultures; format: cell-based
Procedure: (§1) In a clinical setting, treatment with exogenous growth factors would present a difficult and expensive strategy. To address this, our group designed a high throughput screen to identify small molecule modulators of chondrogenic differentiation based on the prevention of the hypertrophy-associated marker collagen X (COLX). […] Importantly, the stimulatory effect of CRMs on p-STAT3 and c-MYC was reversible; protein levels of both p-STAT-3 and c-MYC decreased 48 hours after CRM-398 or -423 withdrawal (data not shown). Identification of such compounds can not only allow us to control differentiation of chondrocytes, but also manipulate the expression of STAT3 and c-MYC to achieve rejuvenation of adult chondrocytes. CRM-398 and -423 can be tested in parallel with LIF and their effects on adult articular chondrocyte activation can be assessed as described herein.

[2] = system: human adult articular chondrocytes; assay: Cellular metabolism (Seahorse ECAR and OCR), human adult articular chondrocytes; format: cell-based
Procedure: The mitochondrial assay cellular oxygen consumption and mitochondrial function was carried out to measure basal respiration using XF24 instrument (Seahorse Biosciences) according to manufacturer instructions. Tested cells (100,000 cells per well) we plated into 24-well test plates 48 hours prior to experimentation. Oxygen consumption rates and extracellular acidification rates were measured every 10 minutes for up to 60 minutes (Rate 1-6).

[3] = system: pig articular cartilage biopsy punches with defects; assay: Repair of defects in adult pig articular cartilage biopsy punches in vitro; format: cell-based; conditions: Matrigel with microspheres, 5 weeks of culture
Procedure: (§2) FIGS. 31A-31D. […] (FIG. 31A) Experiments were conducted to test the tissue reparative function of compounds disclosed herein. FIG. 31A depicts histograms of amounts of glycosaminoglycans (GAGs) and collagen 2 observed under control conditions and after administration of RCGD 423. (FIG. 31B) The duration of the effects elicited by RCGD 423 was determined by applying the drug for 24 hours and then washing it out. Protein levels of pSTAT3 and MYC were determined at the indicated time points after wash out; histone H3 was used as a loading control. (FIG. 31C) Protein levels of MYC and pSTAT3 in adult pig articular chondrocytes were used to determine the time frame in which release of RCGD 423 from PLGA microspheres reaches efficacious levels. Supernatant from drug-loaded PLGA microspheres was harvested at the indicated intervals and applied to pig chondrocytes. Histone H3 was used as a loading control. (FIG. 31D) Repair in a tissue context was assessed by removing small explants from a biopsy punch of adult pig articular cartilage. Matrigel with or without RCGD 423-loaded microspheres was applied to the defects. Safranin O staining was performed on sections of explants following 5 weeks of culture; border of defect and intact tissue is shown.
(§3) We also tested whether RCGD 423 could initiate healing of small defects generated on the surface of intact articular cartilage. […]

pSTAT3 and MYC = assay: Duration of pSTAT3/MYC induction after wash out or release from PLGA microspheres; format: cell-based, pig; conditions: drug applied 24 hours, then washed out
Procedure: as §2, §3

p-STAT3/c-MYC = assay: Secondary screening for effects on p-STAT3/c-MYC protein levels; format: cell-based; conditions: secondary screening of 75 compounds
Procedure: as §1
A strategy for screening for molecules with anti-differentiation effects includes observation of primary limb mesenchyme from mCherry-COL10A1 mice. The screening strategy identifies molecules with STAT3 and c-Myc modulatory activity. FIG. 14 depicts exemplary results for a screening conducted on 170,000 compounds, resulting in 469 hits. FIG. 15 depicts percentage positive z-scores for the 469 compounds identified. FIG. 16 depicts a further screening analysis of the previously identified 469 hit compounds, resulting in 75 refined hits. […]

alkaline phosphatase (AP) levels (human fetal chondrocytes; fetal cartilage treated with BMP-4): significantly reduced
terminal differentiation (COLX expression) (human fetal chondrocytes; human fetal chondrocytes, 1 μM): significant inhibition
Compound: Brc1ccc(Nc2nc(-c3ccccc3)cs2)cc1 [RCGD 423, N-(4-Bromophenyl)-4-phenyl-1,3-thiazol-2-amine]
enriched transcripts (increased more than 1.5-fold in 4/7 replicates) [1]: 1,244
COL10 expression in human cells (human fetal chondrocytes): inhibit
toxicity in chondrocyte cultures (chondrocyte cultures): no toxicity
cellular respiration [2]: increased
levels of glycolysis [2]: unchanged
repair / remodeling of cartilage defects [3]: promotes cartilage repair
time after drug removal at which increases in pSTAT3 and MYC are observed (pSTAT3 and MYC): up to 7 days
effects on p-STAT3/c-MYC protein levels (p-STAT3/c-MYC): most prominent effects
